Tests used:
Assay type in all cases: functional, cell-based
[1] = system: A549; assay: Cytotoxicity against human A549 cells after 48 hrs by MTT assay; details: A549, 48 h
[2] = system: Raji; assay: Cytotoxicity against human Raji cells after 48 hrs by MTT assay
[3] = system: SGC-7901; assay: Cytotoxicity against human SGC7901 cells after 48 hrs by MTT assay; details: SGC-7901, 48 h
[4] = system: HeLa; assay: Cytotoxicity against human HeLa cells after 48 hrs by MTT assay

Row | Compound | IC50 [1] [µM] | IC50 [2] [µM] | IC50 [3] [µM] | IC50 [4] [µM]
1 | CCOC(=O)[C@]1(C)CCC[C@@]2(C)[C@@H]3CC[C@@]4(C)C[C@]3(CC[C@@H]21)c1cn(C(=S)Nc2ccc(F)cc2)nc14 | 33.5 | 17.7 | 18.4 | 13.3
2 | CCOC(=O)[C@]1(C)CCC[C@@]2(C)[C@@H]3CC[C@@]4(C)C[C@]3(CC[C@@H]21)c1cn(C(=S)Nc2ccccc2C)nc14 | 32.1 | 15.2 | 38.1 | > 50
3 | CCOC(=O)[C@]1(C)CCC[C@@]2(C)[C@@H]3CC[C@@]4(C)C[C@]3(CC[C@@H]21)c1cn(C(=S)Nc2ccc(Br)cc2)nc14 | 24.5 | 13.9 | 7.06 | > 50
4 | CCOC(=O)[C@]1(C)CCC[C@@]2(C)[C@@H]3CC[C@@]4(C)C[C@]3(CC[C@@H]21)[C@@H]1CON(C(=S)Nc2ccccc2)[C@@H]14 | > 50 | 32.5 | 27.6 | > 50
5 | CCOC(=O)[C@]1(C)CCC[C@@]2(C)[C@@H]3CC[C@@]4(C)C[C@]3(CC[C@@H]21)[C@@H]1CON(C(=S)Nc2ccccc2[N+](=O)[O-])[C@@H]14 | > 50 | 35.4 | > 50 | > 50
6 | CCOC(=O)[C@]1(C)CCC[C@@]2(C)[C@@H]3CC[C@@]4(C)C[C@]3(CC[C@@H]21)c1cn(C(=S)Nc2ccc([N+](=O)[O-])cc2)nc14 | 35.3 | 17.9 | 34.2 | 36.2
7 | CCOC(=O)[C@]1(C)CCC[C@@]2(C)[C@@H]3CC[C@@]4(C)C[C@]3(CC[C@@H]21)c1cn(C(=S)Nc2cccc(C)c2)nc14 | 31.9 | 14.2 | 15.3 | > 50
8 | CCOC(=O)[C@]1(C)CCC[C@@]2(C)[C@@H]3CC[C@@]4(C)C[C@]3(CC[C@@H]21)[C@@H]1CON(C(=S)Nc2ccc(C)cc2)[C@@H]14 | 45.8 | 27.6 | 37.2 | > 50
9 | CCOC(=O)[C@]1(C)CCC[C@@]2(C)[C@@H]3CC[C@@]4(C)C[C@]3(CC[C@@H]21)[C@@H]1CON(C(=S)Nc2ccccc2F)[C@@H]14 | > 50 | 32.7 | 28.2 | > 50
10 | CCOC(=O)[C@]1(C)CCC[C@@]2(C)[C@@H]3CC[C@@]4(C)C[C@]3(CC[C@@H]21)c1cn(C(=S)Nc2cccc(Br)c2)nc14 | 24.8 | 15.8 | 19.6 | > 50
11 | CCOC(=O)[C@]1(C)CCC[C@@]2(C)[C@@H]3CC[C@@]4(C)C[C@]3(CC[C@@H]21)c1cn(C(=S)Nc2ccccc2)nc14 | 17.6 | 18.9 | 15.7 | 27.1
12 | CCOC(=O)[C@]1(C)CCC[C@@]2(C)[C@@H]3CC[C@@]4(C)C[C@]3(CC[C@@H]21)c1cn(C(=S)Nc2ccccc2OC)nc14 | > 50 | 10.1 | > 50 | > 50
13 | CCOC(=O)[C@]1(C)CCC[C@@]2(C)[C@@H]3CC[C@@]4(C)C[C@]3(CC[C@@H]21)[C@@H]1CON(C(=S)Nc2cccc(Br)c2)[C@@H]14 | > 50 | > 50 | 36.4 | > 50
14 | CCOC(=O)[C@]1(C)CCC[C@@]2(C)[C@@H]3CC[C@@]4(C)C[C@]3(CC[C@@H]21)[C@@H]1CON(C(=S)Nc2cccc(Cl)c2)[C@@H]14 | > 50 | > 50 | > 50 | > 50
15 | CCOC(=O)[C@]1(C)CCC[C@@]2(C)[C@@H]3CC[C@@]4(C)C[C@]3(CC[C@@H]21)c1cn(C(=S)Nc2ccc(Cl)cc2Cl)nc14 | > 50 | 24.5 | 20.1 | > 50
16 | CCOC(=O)[C@]1(C)CCC[C@@]2(C)[C@@H]3CC[C@@]4(C)C[C@]3(CC[C@@H]21)c1cn(C(=S)Nc2ccccc2Cl)nc14 | 26.6 | 21.1 | 26.2 | > 50
17 | CCOC(=O)[C@]1(C)CCC[C@@]2(C)[C@@H]3CC[C@@]4(C)C[C@]3(CC[C@@H]21)[C@@H]1CON(C(=S)Nc2ccccc2Br)[C@@H]14 | > 50 | > 50 | > 50 | > 50
18 | CCOC(=O)[C@]1(C)CCC[C@@]2(C)[C@@H]3CC[C@@]4(C)C[C@]3(CC[C@@H]21)c1cn(C(=S)Nc2ccccc2[N+](=O)[O-])nc14 | 38.3 | 19.6 | 16.4 | 36.9
19 | CCOC(=O)[C@]1(C)CCC[C@@]2(C)[C@@H]3CC[C@@]4(C)C[C@]3(CC[C@@H]21)c1cn(C(=S)Nc2ccc(OC)cc2)nc14 | 17.7 | 6.51 | 9.65 | 13.9
20 | CCOC(=O)[C@]1(C)CCC[C@@]2(C)[C@@H]3CC[C@@]4(C)C[C@]3(CC[C@@H]21)[C@@H]1CON(C(=S)Nc2ccccc2Cl)[C@@H]14 | > 50 | 35.6 | 43.6 | > 50

Row | Compound | IC50 [1] [µM] | IC50 [2] [µM] | IC50 [3] [µM] | IC50 [4] [µM]
21 | CCOC(=O)[C@]1(C)CCC[C@@]2(C)[C@@H]3CC[C@@]4(C)C[C@]3(CC[C@@H]21)[C@@H]1CON(C(=S)Nc2ccc(Cl)cc2Cl)[C@@H]14 | 43.2 | 21.9 | 25.1 | > 50
22 | CCOC(=O)[C@]1(C)CCC[C@@]2(C)[C@@H]3CC[C@@]4(C)C[C@]3(CC[C@@H]21)[C@@H]1CON(C(=S)Nc2cccc([N+](=O)[O-])c2)[C@@H]14 | > 50 | > 50 | > 50 | > 50
23 | CCOC(=O)[C@]1(C)CCC[C@@]2(C)[C@@H]3CC[C@@]4(C)C[C@]3(CC[C@@H]21)[C@@H]1CON(C(=S)Nc2cccc(F)c2)[C@@H]14 | > 50 | 36.4 | > 50 | > 50
24 | CCOC(=O)[C@]1(C)CCC[C@@]2(C)[C@@H]3CC[C@@]4(C)C[C@]3(CC[C@@H]21)[C@@H]1CON(C(=S)Nc2ccccc2OC)[C@@H]14 | > 50 | > 50 | > 50 | > 50
25 | CCOC(=O)[C@]1(C)CCC[C@@]2(C)[C@@H]3CC[C@@]4(C)C[C@]3(CC[C@@H]21)[C@@H]1CON(C(=S)Nc2ccc(Cl)cc2)[C@@H]14 | > 50 | > 50 | > 50 | > 50
26 | CCOC(=O)[C@]1(C)CCC[C@@]2(C)[C@@H]3CC[C@@]4(C)C[C@]3(CC[C@@H]21)c1cn(C(=S)Nc2ccccc2Br)nc14 | 38.1 | 19.6 | 17.2 | 43.4
27 | CCOC(=O)[C@]1(C)CCC[C@@]2(C)[C@@H]3CC[C@@]4(C)C[C@]3(CC[C@@H]21)c1cn(C(=S)Nc2cccc([N+](=O)[O-])c2)nc14 | > 50 | 16.9 | 16 | > 50
28 | C[C@@]12CC[C@@H]3[C@@](CC[C@H]4[C@@]3(C)CCC[C@@]4(C)C(=O)O)(CC1=O)C2 [ISOSTEVIOL] | > 50 | > 50 | > 50 | > 50
29 | CCOC(=O)[C@]1(C)CCC[C@@]2(C)[C@@H]3CC[C@@]4(C)C[C@]3(CC[C@@H]21)[C@@H]1CON(C(=S)Nc2ccc(Br)cc2)[C@@H]14 | > 50 | > 50 | > 50 | > 50
30 | CCOC(=O)[C@]1(C)CCC[C@@]2(C)[C@@H]3CC[C@@]4(C)C[C@]3(CC[C@@H]21)c1cn(C(=S)Nc2c(C)cccc2C)nc14 | > 50 | 12.1 | 14.8 | 49
31 | CCOC(=O)[C@]1(C)CCC[C@@]2(C)[C@@H]3CC[C@@]4(C)C[C@]3(CC[C@@H]21)c1cn(C(=S)Nc2cccc(F)c2)nc14 | 33.8 | 23.7 | 19.5 | > 50
32 | CCOC(=O)[C@]1(C)CCC[C@@]2(C)[C@@H]3CC[C@@]4(C)C[C@]3(CC[C@@H]21)c1cn(C(=S)Nc2ccc(C)cc2)nc14 | > 50 | 12.5 | 14.7 | 40.5
33 | CCOC(=O)[C@]1(C)CCC[C@@]2(C)[C@@H]3CC[C@@]4(C)C[C@]3(CC[C@@H]21)[C@@H]1CON(C(=S)Nc2c(C)cccc2C)[C@@H]14 | 41.6 | 19.7 | 27.4 | > 50
34 | CCOC(=O)[C@]1(C)CCC[C@@]2(C)[C@@H]3CC[C@@]4(C)C[C@]3(CC[C@@H]21)[C@@H]1CON(C(=S)Nc2ccc(OC)cc2)[C@@H]14 | > 50 | 37.4 | > 50 | > 50
35 | CCOC(=O)[C@]1(C)CCC[C@@]2(C)[C@@H]3CC[C@@]4(C)C[C@]3(CC[C@@H]21)[C@@H]1CON(C(=S)Nc2ccccc2C)[C@@H]14 | > 50 | 24 | 38.3 | > 50
36 | CCOC(=O)[C@]1(C)CCC[C@@]2(C)[C@@H]3CC[C@@]4(C)C[C@]3(CC[C@@H]21)c1cn(C(=S)Nc2ccc(Cl)cc2)nc14 | 20 | 13 | 21.7 | 39
37 | CCOC(=O)[C@]1(C)CCC[C@@]2(C)[C@@H]3CC[C@@]4(C)C[C@]3(CC[C@@H]21)[C@@H]1CON(C(=S)Nc2ccc(F)cc2)[C@@H]14 | > 50 | > 50 | > 50 | > 50
38 | CCOC(=O)[C@]1(C)CCC[C@@]2(C)[C@@H]3CC[C@@]4(C)C[C@]3(CC[C@@H]21)[C@@H]1CON(C(=S)Nc2cccc(OC)c2)[C@@H]14 | > 50 | > 50 | > 50 | > 50
39 | CCOC(=O)[C@]1(C)CCC[C@@]2(C)[C@@H]3CC[C@@]4(C)C[C@]3(CC[C@@H]21)[C@@H]1CON(C(=S)Nc2cccc(C)c2)[C@@H]14 | > 50 | 43.2 | 34.1 | > 50

Source: ChEMBL document CHEMBL2331181, “Synthesis and in vitro cytotoxic activity evaluation of novel heterocycle bridged carbothioamide type isosteviol derivatives as antitumor agents” (Bioorg Med Chem Lett, 2013)
